Molecules are shown by their SMILES.

The experiment has as its target T1, RORc ligand binding domain (Homo sapiens, UniProt P51449).
T1 sequence (P51449 269-508 limits assumed): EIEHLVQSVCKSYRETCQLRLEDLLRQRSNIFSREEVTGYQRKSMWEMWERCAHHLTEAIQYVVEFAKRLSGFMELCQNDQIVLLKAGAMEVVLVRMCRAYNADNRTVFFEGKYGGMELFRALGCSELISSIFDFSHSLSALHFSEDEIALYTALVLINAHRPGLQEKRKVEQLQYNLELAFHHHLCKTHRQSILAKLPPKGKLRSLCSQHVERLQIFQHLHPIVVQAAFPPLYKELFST
The experiment can be described thus: In vitro RORc ligand binding assay (25-[3H]hydroxycholesterol displacement).
For `CNC(=O)c1nc(CNC(=O)C2(c3ccc(CN4[C@@H](C)CC[C@H](c5ccccc5)S4(=O)=O)c(F)c3)CCOCC2)no1` [Example 15, 3-[[[4-[3-fluoro-4-[[(3S,6R)-3-methyl-1,1-dioxo-6-phenyl-thiazinan-2-yl]methyl]phenyl]tetrahydropyran-4-carbonyl]amino]methyl]-N-methyl-1,2,4-oxadiazole-5-carboxamide], the IC50 (as a rule, the point on the concentration scale where inhibition reaches its midpoint) is 0.0094 µM. In the case of `Cc1nocc1CNC(=O)C1(c2ccc(CN3[C@@H](C)CC[C@H](c4ccccc4)S3(=O)=O)c(F)c2)CCOCC1` [Example 2] it was 0.0638 µM.

`Cc1cc(CNC2(c3cc(F)c(CN4[C@@H](C)CC[C@H](c5ccccc5)S4(=O)=O)cc3F)CCOCC2)no1` [Example 86, 4-[2,5-difluoro-4-[[(3S,6R)-3-methyl-1,1-dioxo-6-phenyl-thiazinan-2-yl]methyl]phenyl]-N-[(5-methylisoxazol-3-yl)methyl]tetrahydropyran-4-amine] displayed a half-inhibitory concentration (IC50) of 0.005 µM. For `C[C@H]1CC[C@H](c2ccccc2)S(=O)(=O)N1Cc1ccc(C2(C(=O)Nc3ncnn3C)CCOCC2)cc1F` [Example 7] the value was 0.299 µM; for `C[C@H]1CC[C@H](c2ccccc2)S(=O)(=O)N1Cc1ccc(C2(C(=O)NCCN3CCC(O)CC3)CCOCC2)cc1F` [Example 5], 1.86 µM; for `C[C@H]1CC[C@H](c2ccccc2)S(=O)(=O)N1Cc1cc(F)c([C@]2(c3nn(C)c(=O)o3)C[C@@H](O)C2)cc1F` [Example 146, cis 5-[1-[2,5-difluoro-4-[[(3S,6R)-3-methyl-1,1-dioxo-6-phenyl-thiazinan-2-yl]methyl]phenyl]-3-hydroxy-cyclobutyl]-3-methyl-1,3,4-oxadiazol-2-one], 0.0176 µM.

Turning to `C[C@H]1CC[C@H](c2ccccc2)S(=O)(=O)N1Cc1cc(F)c([C@]2(NC(=O)c3csnn3)C[C@](C)(O)C2)cc1F` (racemic) [Example 181, N-[1-[2,5-difluoro-4-[[rac-(3S,6R)-3-methyl-1,1-dioxo-6-phenyl-thiazinan-2-yl]methyl]phenyl]-3-hydroxy-3-methyl-cyclobutyl]thiadiazole-4-carboxamide], the IC50 turned out to be 0.013 µM. The compound `C[C@H]1CC[C@H](c2ccccc2)S(=O)(=O)N1Cc1cc(F)c(C2(C(=O)n3cccn3)CCOCC2)cc1F` [Example 39, [4-[2,5-difluoro-4-[[(3S,6R)-3-methyl-1,1-dioxo-6-phenyl-thiazinan-2-yl]methyl]phenyl]tetrahydropyran-4-yl]-pyrazol-1-yl-methanone] gave a half-inhibitory concentration (IC50) of 0.0273 µM. For `C[C@H]1CC[C@H](c2ccccc2)S(=O)(=O)N1Cc1cc(F)c(C2(N3C[C@H](CO)OC3=O)CCOCC2)cc1F` [Example 98, (5R)-3-[4-[2,5-difluoro-4-[[(3S,6R)-3-methyl-1,1-dioxo-6-phenyl-thiazinan-2-yl]methyl]phenyl]tetrahydropyran-4-yl]-5-(hydroxymethyl)oxazolidin-2-one] the value was 0.0676 µM; for `Cc1nn(C)cc1CNC1(c2cc(F)c(CN3[C@@H](C)CC[C@H](c4ccccc4)S3(=O)=O)cc2F)COC1` [Example 135, 3-[2,5-difluoro-4-[[(3S,6R)-3-methyl-1,1-dioxo-6-phenyl-thiazinan-2-yl]methyl]phenyl]-N-[(1,3-dimethylpyrazol-4-yl)methyl]oxetan-3-amine], 0.201 µM; for `Cc1nnc(C2(c3ccc(CN4[C@@H](C)CC[C@H](c5ccccc5)S4(=O)=O)c(F)c3)CCOCC2)[nH]1` [Example 47, (3S,6R)-2-[[2-fluoro-4-[4-(5-methyl-4H-1,2,4-triazol-3-yl)tetrahydropyran-4-yl]phenyl]methyl]-3-methyl-6-phenyl-thiazinane 1,1-dioxide], 0.114 µM. As to `C[C@H]1CC[C@H](c2ccccc2)S(=O)(=O)N1Cc1cc(F)c(C2(NCc3cocn3)COC2)cc1F` [Example 85, 3-[2,5-difluoro-4-[[(3S,6R)-3-methyl-1,1-dioxo-6-phenyl-thiazinan-2-yl]methyl]phenyl]-N-(oxazol-4-ylmethyl)oxetan-3-amine], the IC50 was 0.0041 µM. For `C[C@H]1CC[C@H](c2ccccc2)S(=O)(=O)N1Cc1ccc(C2(OCc3nnc[nH]3)COC2)cc1F` [Example 59, (3S,6R)-2-[[2-fluoro-4-[3-(4H-1,2,4-triazol-3-ylmethoxy)oxetan-3-yl]phenyl]methyl]-3-methyl-6-phenyl-thiazinane 1,1-dioxide] the value was 0.0232 µM; for `C[C@H]1CC[C@H](c2ccccc2)S(=O)(=O)N1Cc1cc(F)c(C2(NCc3ncco3)CCOCC2)cc1F` [Example 83, 4-[2,5-difluoro-4-[[(3S,6R)-3-methyl-1,1-dioxo-6-phenyl-thiazinan-2-yl]methyl]phenyl]-N-(oxazol-2-ylmethyl)tetrahydropyran-4-amine], 0.0037 µM; for `C[C@H]1CC[C@H](c2ccccc2)S(=O)(=O)N1Cc1cc(F)c(C2(NC(=O)c3ccon3)CCOCC2)cc1F` [Example 107, N-[4-[2,5-difluoro-4-[[(3S,6R)-3-methyl-1,1-dioxo-6-phenyl-thiazinan-2-yl]methyl]phenyl]tetrahydropyran-4-yl]isoxazole-3-carboxamide], 0.0027 µM. As for `C[C@H]1CC[C@H](c2ccccc2)S(=O)(=O)N1Cc1ccc(C2(C(=O)NCC3CCOC3)CCOCC2)cc1F` (stereo partly shown) [Example 11], the IC50 came out at 0.161 µM.

Compound `Cc1[nH]c(=O)oc1[C@]1(c2cc(F)c(CN3[C@@H](C)CC[C@H](c4ccccc4)S3(=O)=O)cc2F)C[C@@](C)(O)C1` [Example 160, 5-[1-[2,5-difluoro-4-[[(3S,6R)-3-methyl-1,1-dioxo-6-phenyl-thiazinan-2-yl]methyl]phenyl]-3-hydroxy-3-methyl-cyclobutyl]-4-methyl-3H-oxazol-2-one] gave an IC50 of 0.0136 µM. For `C[C@H]1CC[C@H](c2ccccc2)S(=O)(=O)N1Cc1cc(F)c(C2(NCc3nnc[nH]3)CCOCC2)cc1F` [Example 92, 4-[2,5-difluoro-4-[[(3S,6R)-3-methyl-1,1-dioxo-6-phenyl-thiazinan-2-yl]methyl]phenyl]-N-(4H-1,2,4-triazol-3-ylmethyl)tetrahydropyran-4-amine] the value was 0.0236 µM; for `C[C@H]1CC[C@H](c2ccccc2)S(=O)(=O)N1Cc1cc(F)c(C2(NC(=O)c3ccon3)COC2)cc1F` [Example 97, N-[3-[2,5-difluoro-4-[[(3S,6R)-3-methyl-1,1-dioxo-6-phenyl-thiazinan-2-yl]methyl]phenyl]oxetan-3-yl]isoxazole-3-carboxamide], 0.0224 µM; for `C[C@H]1CC[C@H](c2ccccc2)S(=O)(=O)N1Cc1cc(F)c([C@]2(c3n[nH]c(=O)o3)C[C@](C)(F)C2)cc1F` [Example 139, trans 5-[1-[2,5-difluoro-4-[[(3S,6R)-3-methyl-1,1-dioxo-6-phenyl-thiazinan-2-yl]methyl]phenyl]-3-fluoro-3-methyl-cyclobutyl]-3H-1,3,4-oxadiazol-2-one], 0.0039 µM.

In the case of `C[C@H]1CC[C@H](c2ccccc2)S(=O)(=O)N1Cc1cc(F)c(C2(NCc3ccn(C)n3)CCOCC2)cc1F` [Example 91, 4-[2,5-difluoro-4-[[(3S,6R)-3-methyl-1,1-dioxo-6-phenyl-thiazinan-2-yl]methyl]phenyl]-N-[(1-methylpyrazol-3-yl)methyl]tetrahydropyran-4-amine], the IC50 was determined as 0.0826 µM. Take `Cc1ccn(C(=O)C2(c3cc(F)c(CN4[C@@H](C)CC[C@H](c5ccccc5)S4(=O)=O)cc3F)CCOCC2)n1` [Example 38, [4-[2,5-difluoro-4-[[(3S,6R)-3-methyl-1,1-dioxo-6-phenyl-thiazinan-2-yl]methyl]phenyl]tetrahydropyran-4-yl]-(3-methylpyrazol-1-yl)methanone]: the IC50 was 0.035 µM.

In the case of `C[C@H]1CC[C@H](c2ccccc2)S(=O)(=O)N1Cc1cc(F)c([C@]2([C@@H](O)Cc3ncn[nH]3)C[C@](C)(O)C2)cc1F` (racemic) [Example 170, 3-[2,5-difluoro-4-[[rac-(3S,6R)-3-methyl-1,1-dioxo-6-phenyl-thiazinan-2-yl]methyl]phenyl]-1-methyl-3-[rac-(1S)-1-hydroxy-2-(1H-1,2,4-triazol-5-yl)ethyl]cyclobutanol], the IC50 is 0.0295 µM. Regarding `C[C@H]1CC[C@H](c2ccccc2)S(=O)(=O)N1Cc1ccc(C2(c3nnc[nH]3)CCOCC2)cc1F` [Example 46, (3S,6R)-2-[[2-fluoro-4-[4-(4H-1,2,4-triazol-3-yl)tetrahydropyran-4-yl]phenyl]methyl]-3-methyl-6-phenyl-thiazinane 1,1-dioxide], the IC50 was determined as 0.0266 µM.

In turn, `C[C@H]1CC[C@H](c2ccccc2)S(=O)(=O)N1Cc1cc(F)c(C2(NCc3ncco3)COC2)cc1F` [Example 88, 3-[2,5-difluoro-4-[[(3S,6R)-3-methyl-1,1-dioxo-6-phenyl-thiazinan-2-yl]methyl]phenyl]-N-(oxazol-2-ylmethyl)oxetan-3-amine] returned an IC50 of 0.0082 µM. Consider `C[C@H]1CC[C@H](c2ccccc2)S(=O)(=O)N1Cc1ccc(C2(NCc3ncco3)CCOCC2)cc1F` [Example 71, 4-[3-fluoro-4-[[(3S,6R)-3-methyl-1,1-dioxo-6-phenyl-thiazinan-2-yl]methyl]phenyl]-N-(oxazol-2-ylmethyl)tetrahydropyran-4-amine], for which the 50% inhibitory concentration (IC50) came out at 0.0025 µM. In turn, `Cc1n[nH]cc1C(=O)NC1(c2cc(F)c(CN3[C@@H](C)CC[C@H](c4ccccc4)S3(=O)=O)cc2F)COC1` (stereo in doubt) [Example 130, N-[3-[2,5-difluoro-4-[[(3S,6R)-3-methyl-1,1-dioxo-6-phenyl-thiazinan-2-yl]methyl]phenyl]oxetan-3-yl]-3-methyl-1H-pyrazole-4-carboxamide] returned an IC50 of 0.126 µM. In the case of `Cc1nnc(C2(c3cc(F)c(CN4[C@@H](C)CC[C@H](c5ccccc5)S4(=O)=O)cc3F)CC2)[nH]1` [Example 49, (3S,6R)-2-[[2,5-difluoro-4-[1-(5-methyl-4H-1,2,4-triazol-3-yl)cyclopropyl]phenyl]methyl]-3-methyl-6-phenyl-thiazinane 1,1-dioxide] it was 0.0404 µM.

The record behind these values is patent US10259808B2 (Genentech, Inc., priority 2015, dated 2019).
